The values below come from ChEMBL document CHEMBL1201862, “PubChem BioAssay data set” (2004).

Some test systems named below: COLO 205; NCI-H226; Hs-578T; EKVX; SK-MEL-28; MOLT-4; MDA-MB-435; NCI-H522; SNB-75; OVCAR-5; NCI-H23; 786-0; HT-29; HCT-15; KM12; SK-OV-3; K562; CCRF-CEM.
Test in all cases: NCI anticancer screen, dose series, 48 h

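All cell lines were grown in 96-well plates and treated with compound for 48 hours. The concentration for 50% growth inhibition is given as GI50.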 Activity calls are given as the source filed them. Rule as the data show it: active = GI50 up to about 1.1 µM and inactive = higher. A value given as a limit tells only on which side of the number the result lay.

On to `O=C(Nc1ccc2oc(=O)c(C(=O)O)cc2c1)Oc1ccccc1`, for which the GI50 in the test on COLO 205, in the test with NCI-H226, with Hs-578T, with EKVX, in the test with SK-MEL-28 and with MOLT-4 was > 100 µM (inactive) in each case. Moreover, the GI50 with MDA-MB-435, in the test with NCI-H522, in the test on SNB-75, in the test on OVCAR-5, with NCI-H23 and in the test with 786-0 was > 100 µM (inactive) throughout. The GI50 with HT-29 was > 100 µM (inactive); in the test with HCT-15, more than 100 µM; with KM12 it was > 100 µM (inactive); with SK-OV-3 it was > 100 µM (inactive); in the test with K562 it was > 100 µM (inactive).
For `CCN(CC)/C(Sc1ccccc1)=C(\C(Cl)=C(Cl)Cl)[N+](=O)[O-]`, the GI50 is 16.4 µM (inactive) with COLO 205; 18.5 µM (inactive) with NCI-H226; 20.7 µM (inactive) in the test with Hs-578T; 15.6 µM (inactive) with EKVX; 17.9 µM (inactive) in the test with SK-MEL-28; 6.93 µM (inactive) in the test with MOLT-4. Besides, the GI50 is 13.5 µM (inactive) in the test on MDA-MB-435; 12.6 µM (inactive) in the test with NCI-H522; 20.4 µM (inactive) in the test on SNB-75; 13.7 µM (inactive) in the test on NCI-H23; 18 µM (inactive) in the test with 786-0; 21.5 µM (inactive) in the test on HT-29. The GI50 with HCT-15 was 14.9 µM; in the test on KM12 it was 17.7 µM (inactive); in the test on SK-OV-3, 33.4 µM (inactive); in the test on K562, 10.8 µM (inactive); with CCRF-CEM it was 4.99 µM (inactive).
Turning to `Cc1ccc(C(=O)Nc2ccc(CP(=O)(O)O)cc2CP(=O)(O)O)cc1NC(=O)Nc1cc(C(=O)Nc2ccc(CP(=O)(O)O)cc2CP(=O)(O)O)ccc1C`, the GI50 in the test with COLO 205, in the test on NCI-H226, in the test on Hs-578T, in the test with EKVX, in the test on SK-MEL-28 and in the test with MDA-MB-435 was > 100 µM (inactive) throughout. Besides, the GI50 with NCI-H522 is 64.9 µM (inactive); in the test on SNB-75, > 100 µM (inactive); in the test on OVCAR-5, > 100 µM (inactive); in the test on NCI-H23, > 100 µM (inactive); in the test with 786-0, > 100 µM (inactive); in the test on HT-29, > 100 µM (inactive). In addition, the GI50 in the test on HCT-15 is more than 100 µM; in the test on KM12, > 100 µM (inactive); with SK-OV-3 it was > 100 µM (inactive); with K562, > 100 µM (inactive); in the test on CCRF-CEM, > 100 µM (inactive).
For `Clc1c(Cl)c(Cl)c2c(nnn2C2CCCO2)c1Cl` (centres undefined), the GI50 is 24.2 µM (inactive) in the test with COLO 205; 34.4 µM (inactive) in the test on NCI-H226; 25.8 µM (inactive) in the test on Hs-578T; 22.3 µM (inactive) with EKVX; 23.2 µM (inactive) in the test on MOLT-4; 34.1 µM (inactive) in the test on MDA-MB-435. Further, the GI50 in the test with NCI-H522 was 23.8 µM (inactive); with SNB-75, 12.9 µM (inactive); in the test with OVCAR-5 it was 41.7 µM (inactive); in the test with NCI-H23, 19.6 µM (inactive); in the test on 786-0 it was 45.8 µM (inactive); with HT-29, 33.6 µM (inactive). For the same compound, the GI50 is 28.4 µM in the test on HCT-15, 75.9 µM (inactive) in the test with SK-OV-3, 24.3 µM (inactive) in the test on K562 and 26.4 µM (inactive) in the test on CCRF-CEM.
On to `C=CC(O)C#Cc1cnc(OC)nc1OC` (centres undefined), for which the GI50 in the test with COLO 205 is 81.5 µM (inactive); in the test with NCI-H226, 30.1 µM (inactive); in the test on Hs-578T, > 100 µM (inactive); in the test on EKVX, > 100 µM (inactive); in the test with SK-MEL-28, > 100 µM (inactive); in the test with MOLT-4 it was 32.6 µM (inactive). Besides, the GI50 with MDA-MB-435 was > 100 µM (inactive); in the test with NCI-H522 it was 54.2 µM (inactive); in the test on SNB-75, 65.8 µM (inactive); in the test on OVCAR-5, > 100 µM (inactive); in the test on NCI-H23, > 100 µM (inactive); with 786-0, 38.6 µM (inactive). The GI50 with HT-29 is > 100 µM (inactive); with HCT-15, more than 100 µM; in the test on KM12, 86.7 µM (inactive); in the test with K562, 23.9 µM (inactive); in the test on CCRF-CEM, 17.1 µM (inactive).
As for `CO/N=C(/C)c1cccc(Nc2nc3ccccc3c3[nH]c4ccccc4c23)c1`, the GI50 with COLO 205 was 7.33 µM (inactive); in the test on NCI-H226, 13.7 µM (inactive); in the test with Hs-578T, 13.8 µM (inactive); with MOLT-4, 3.96 µM (inactive); in the test with MDA-MB-435, 7.41 µM (inactive); in the test with NCI-H522 it was 2.99 µM (inactive). The GI50 is 0.302 µM (active) in the test with SNB-75; 6.82 µM (inactive) in the test on OVCAR-5; 10.3 µM (inactive) in the test with NCI-H23; 8.55 µM (inactive) in the test on 786-0; 2.49 µM (inactive) with HT-29; 5.92 µM in the test on HCT-15. The results for the GI50 with KM12, in the test with SK-OV-3 and in the test with K562 were 3.99 µM (inactive), 17.1 µM (inactive) and 5.97 µM (inactive), respectively.
Consider `CC(=O)OCC1OC(n2c3c(cc(C#N)c2=S)CCC3)C(OC(C)=O)C(OC(C)=O)C1OC(C)=O` (centres undefined), for which the GI50 with COLO 205 was > 100 µM (inactive); in the test on NCI-H226, > 100 µM (inactive); in the test on Hs-578T it was > 100 µM (inactive); in the test with SK-MEL-28, > 100 µM (inactive); in the test with MOLT-4, 33.9 µM (inactive); with MDA-MB-435 it was > 100 µM (inactive). The GI50 is > 100 µM (inactive) in the test with NCI-H522; 68.1 µM (inactive) in the test on SNB-75; > 100 µM (inactive) in the test on OVCAR-5; > 100 µM (inactive) with NCI-H23; > 100 µM (inactive) with 786-0; > 100 µM (inactive) with HT-29. The GI50 in the test on HCT-15 was more than 100 µM; with KM12, > 100 µM (inactive); with K562 it was > 100 µM (inactive); with CCRF-CEM, > 100 µM (inactive).
On to `Cc1ccc(C2SCC(=O)N2c2ccc(-n3c(-c4ccccc4)nc4ccccc4c3=O)cc2)cc1` (centres undefined), for which the GI50 is 30.1 µM (inactive) in the test with COLO 205; 18.5 µM (inactive) with NCI-H226; 10 µM (inactive) in the test on Hs-578T; 21 µM (inactive) with SK-MEL-28; 7.1 µM (inactive) in the test on MOLT-4; 21.1 µM (inactive) in the test with MDA-MB-435. Moreover, the GI50 in the test with NCI-H522 was 13.5 µM (inactive); with SNB-75 it was 18.3 µM (inactive); with OVCAR-5, 42.4 µM (inactive); with NCI-H23 it was 36.4 µM (inactive); in the test with 786-0, 18.7 µM (inactive); in the test on HT-29 it was 17.2 µM (inactive). For the same compound, the GI50 in the test on HCT-15 is 6.65 µM; with KM12 it was 16.6 µM (inactive); in the test with SK-OV-3 it was 4.95 µM (inactive); in the test with K562 it was 7.26 µM (inactive); in the test with CCRF-CEM it was 8.18 µM (inactive).
`CC(=O)Oc1cc(-c2oc3cc(OC(C)=O)c(C4OC(CO)C(O)C(O)C4O)c(OC(C)=O)c3c(=O)c2O)c(OC(C)=O)cc1O` (centres undefined): the GI50 was > 100 µM (inactive) in the test with COLO 205; 91.8 µM (inactive) in the test on NCI-H226; > 100 µM (inactive) in the test with Hs-578T; > 100 µM (inactive) in the test on EKVX; > 100 µM (inactive) with MOLT-4; > 100 µM (inactive) in the test with MDA-MB-435. The GI50 in the test on NCI-H522 was 72.6 µM (inactive); in the test on SNB-75, 60.4 µM (inactive); in the test with OVCAR-5 it was > 100 µM (inactive); in the test on NCI-H23, > 100 µM (inactive); in the test with 786-0 it was > 100 µM (inactive); in the test with HT-29, > 100 µM (inactive). In addition, the GI50 with HCT-15 was more than 100 µM; in the test on KM12, > 100 µM (inactive); in the test with SK-OV-3 it was > 100 µM (inactive); with K562 it was > 100 µM (inactive); in the test with CCRF-CEM, 89.9 µM (inactive).
Regarding `COC(=O)/C=C\S/C(=C(/c1ccccc1)n1ccc(C(=O)OC)n1)c1ccccc1`, the GI50 in the test with COLO 205 is > 100 µM (inactive); with NCI-H226, > 100 µM (inactive); in the test on Hs-578T, 26.6 µM (inactive); in the test on EKVX, 26.5 µM (inactive); with SK-MEL-28, 28.6 µM (inactive); in the test with MOLT-4, 56.6 µM (inactive). In addition, the GI50 with MDA-MB-435 was 45.4 µM (inactive); in the test on NCI-H522 it was 24.5 µM (inactive); in the test with SNB-75, 6.04 µM (inactive); in the test on OVCAR-5, > 100 µM (inactive); in the test with NCI-H23 it was 22.8 µM (inactive); in the test on 786-0 it was 12.4 µM (inactive). Moreover, the GI50 in the test on HT-29 was > 100 µM (inactive); in the test with HCT-15 it was more than 100 µM; with KM12, > 100 µM (inactive); in the test on SK-OV-3 it was 19.9 µM (inactive); in the test on K562, > 100 µM (inactive).
As to `CN(Cc1nc2c(N)nc(N)nc2nc1N)c1ccc(C(=O)NC(CCC(=O)O)C(=O)O)cc1` (centres undefined), the GI50 with COLO 205 is > 100 µM (inactive); with NCI-H226, > 100 µM (inactive); in the test on Hs-578T, > 19.8 µM (inactive); with SK-MEL-28 it was > 76.4 µM (inactive); in the test on MOLT-4 it was < 0.0163 µM (active); with MDA-MB-435, 0.0277 µM (active). In addition, the GI50 in the test on NCI-H522 was > 33.6 µM (inactive); in the test with SNB-75 it was 7.45 µM (inactive); with OVCAR-5 it was 17.7 µM (inactive); in the test on NCI-H23 it was 0.544 µM (active); with 786-0, < 0.01 µM (active); with HT-29, < 0.01 µM (active). The GI50 in the test with HCT-15 is 0.0708 µM; in the test on KM12 it was > 100 µM (inactive); in the test on SK-OV-3, > 100 µM (inactive); in the test on CCRF-CEM, < 0.01 µM (active).
As for `C[C@H]1[C@@H](c2ccccc2)O[B-](c2ccccc2)(c2ccccc2)[N+]1(C)C`, the GI50 in the test on COLO 205 is 16.1 µM (inactive); in the test on NCI-H226, 37.7 µM (inactive); with Hs-578T it was 51.9 µM (inactive); with EKVX, > 100 µM (inactive); in the test on SK-MEL-28 it was 48 µM (inactive); in the test on MOLT-4, 43.6 µM (inactive). The GI50 with MDA-MB-435 was 61.8 µM (inactive); in the test on NCI-H522 it was 35.7 µM (inactive); with OVCAR-5 it was > 100 µM (inactive); in the test with NCI-H23, 70.1 µM (inactive); in the test on 786-0 it was 78.2 µM (inactive); in the test on HT-29 it was 10 µM (inactive). Moreover, the GI50 with HCT-15 is 38.4 µM; in the test with KM12, > 100 µM (inactive); in the test with SK-OV-3, > 100 µM (inactive); in the test with K562 it was 48.5 µM (inactive); in the test with CCRF-CEM, > 100 µM (inactive).
